From US20250313575A1, “MACROCYCLES AS LRRK2 INHIBITORS, PHARMACEUTICAL COMPOSITIONS, AND USES THEREOF” (Merck Sharp & Dohme LLC, priority 2022, published 2025)

Biological target: GST-tagged truncated human mutant G2019S LRRK2 (Homo sapiens (Human), UniProt Q5S007, G2019S)
Experiment: LRRK2 G2019S Km ATP LanthaScreen assay
Format: biochemical
Conditions: G2019S LRRK2, 134 μM ATP (Km ATP), LRRKtide substrate
Procedure, shortened: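 TR-FRET assay with GST-tagged truncated human G2019S LRRK2 (1.25 nM), preincubated with compound 15 min, then reacted with fluorescein-LRRKtide and 134 μM ATP (Km) in Tris pH 8.5 buffer, 90 min, ambient temperature. Tb-anti-phospho-LRRKtide detection, 520/495 nm ratio; IC50 by 4-parameter logistic fit, top concentration 9.99 μM in DMSO, 10 points.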

GST-tagged truncated human mutant G2019S LRRK2, sequence (Q5S007 970-2527 G2019S): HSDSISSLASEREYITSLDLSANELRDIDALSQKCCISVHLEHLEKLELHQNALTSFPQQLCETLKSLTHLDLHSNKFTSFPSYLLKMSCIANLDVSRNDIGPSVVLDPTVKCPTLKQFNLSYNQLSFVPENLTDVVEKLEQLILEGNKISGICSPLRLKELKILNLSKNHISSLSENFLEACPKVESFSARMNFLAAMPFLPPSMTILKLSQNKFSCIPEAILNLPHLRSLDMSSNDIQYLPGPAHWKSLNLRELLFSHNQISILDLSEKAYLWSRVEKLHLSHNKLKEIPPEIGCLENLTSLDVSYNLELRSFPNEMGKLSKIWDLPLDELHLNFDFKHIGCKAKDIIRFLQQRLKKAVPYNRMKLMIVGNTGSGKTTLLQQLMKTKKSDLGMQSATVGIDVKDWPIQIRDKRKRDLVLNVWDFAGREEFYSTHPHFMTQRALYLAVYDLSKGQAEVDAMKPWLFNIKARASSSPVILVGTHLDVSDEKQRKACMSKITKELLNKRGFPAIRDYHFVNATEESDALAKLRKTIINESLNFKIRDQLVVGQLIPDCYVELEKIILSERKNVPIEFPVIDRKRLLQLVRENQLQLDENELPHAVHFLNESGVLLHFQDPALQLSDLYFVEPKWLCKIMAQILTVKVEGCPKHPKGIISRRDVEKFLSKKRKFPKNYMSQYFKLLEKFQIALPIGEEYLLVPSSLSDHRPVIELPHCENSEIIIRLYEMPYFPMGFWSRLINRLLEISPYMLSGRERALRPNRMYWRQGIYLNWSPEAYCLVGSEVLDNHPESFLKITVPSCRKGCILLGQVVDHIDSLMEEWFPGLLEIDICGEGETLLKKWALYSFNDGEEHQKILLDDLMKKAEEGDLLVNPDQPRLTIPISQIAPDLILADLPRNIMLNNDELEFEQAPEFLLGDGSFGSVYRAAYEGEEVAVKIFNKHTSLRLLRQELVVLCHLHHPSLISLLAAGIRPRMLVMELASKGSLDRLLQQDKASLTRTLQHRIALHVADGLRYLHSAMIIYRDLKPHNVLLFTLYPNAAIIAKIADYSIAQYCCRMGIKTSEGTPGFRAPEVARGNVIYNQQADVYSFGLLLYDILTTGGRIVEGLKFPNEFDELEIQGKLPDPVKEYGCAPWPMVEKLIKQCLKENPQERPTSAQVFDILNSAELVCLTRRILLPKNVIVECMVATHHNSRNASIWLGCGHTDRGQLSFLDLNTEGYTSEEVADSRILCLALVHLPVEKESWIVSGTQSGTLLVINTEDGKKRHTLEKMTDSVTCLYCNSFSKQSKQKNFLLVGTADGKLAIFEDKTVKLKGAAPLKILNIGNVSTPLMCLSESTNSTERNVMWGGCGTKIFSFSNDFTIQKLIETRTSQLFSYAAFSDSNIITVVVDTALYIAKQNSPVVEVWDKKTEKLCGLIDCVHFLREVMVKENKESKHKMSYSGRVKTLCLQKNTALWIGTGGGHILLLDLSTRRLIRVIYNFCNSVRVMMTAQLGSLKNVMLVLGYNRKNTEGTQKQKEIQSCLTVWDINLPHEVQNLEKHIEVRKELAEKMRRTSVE

Cc1nn(C2CCC2)c2c1OC[C@@H]1COCC[C@H]1Nc1nc(ncc1C(F)(F)F)N2 [Ex-2.34, (4aR,16aS)- or (4aS,16aR)-12-cyclobutyl-14-methyl-7-(trifluoromethyl)-3,4,4a,5,11,12,16,16a-octahydro-1H-6,10-(azeno)pyrano[4,3-k]pyrazolo[4,3-b][1]oxa[4,6,10]triazacyclotridecine]
LRRK2 pIC50: 8.00

COC1CC(n2nc(C)c3c2Nc2ncc(Cl)c(n2)N[C@@H]2CC[C@H]2CO3)C1 (stereo partly drawn) [Ex-2.77, (10aR,12aR)-8-chloro-3-(3-methoxycyclobutyl)-1-methyl-3,4,10,10a,11,12,12a,13-octahydro-5,9-(azeno)cyclobuta[k]pyrazolo[4,3-b][1]oxa[4,6,10]triazacyclotridecine]
LRRK2 pIC50: >10.09

Cc1nn(C2CCC2)c2c1OC[C@@H]1COC[C@H]1Nc1nc(ncc1C(F)(F)F)N2 (single isomer, unassigned) [Ex-2.27, (3aR,15aR)- or (3aS,15aS)-11-cyclobutyl-13-methyl-6-(trifluoromethyl)-2,3,3a,4,10,11,15,15a-octahydro-5,9-(azeno)furo[3,2-k]pyrazolo[4,3-b][1]oxa[4,6,10]triazacyclotridecine]
LRRK2 pIC50: 6.47

Cc1nn(C)c2c1OC[C@H]1COC[C@H]1Nc1nc(ncc1C(F)(F)F)N2 [Ex-2.24, (10aS,13aR)- or (10aR,13aS)-1,3-dimethyl-8-(trifluoromethyl)-3,4,10a,11,13a,14-hexahydro-10H,13H-5,9-(azeno)furo[3,4-k]pyrazolo[4,3-b][1]oxa[4,6,10]triazacyclotridecine]
LRRK2 pIC50: 6.05

Cc1nn(C)c2c1OCC1(CNc3nc(ncc3C(F)(F)F)N2)CC12CCOCC2 (single isomer, unassigned) [Ex-2.17, (R)- or (S)-1″,3″-dimethyl-10″- (trifluoromethyl)-1″,2,3,5,6,7″,8″,14″- octahydro-5″H-dispiro[pyran-4,1′-cyclopropane-2′,6″- [9,13](azeno)pyrazolo[4,3-b][1]oxa[4,6,10]triazacyclotridecine]]
LRRK2 pIC50: 8.42

Cc1nn(C2CCC2)c2c1OCC[C@@H]1COCCN1c1nc(ncc1C(F)(F)F)N2 (single isomer, unassigned) [Ex-21.3, (R) or (S)-3-cyclobutyl-1-methyl-8-(trifluoromethyl)-3,4,11,12,14,14a,15,16-octahydro-5,9-(azeno)[1,4]oxazino[4,3-j]pyrazolo[4,3-b][1]oxa[4,6,10]triazacyclotridecine]
IC50 (read-out: LRRK2 pIC50 (converted)): 22.9 nM

FC(F)(F)c1cnc2nc1NC1CCC1COc1c(C3COC3)nn(C3CCC3)c1N2 [Ex-2.71, (10aR,12aR)- or (10aS,12aS)-3-cyclobutyl-1-(oxetan-3-yl)-8-(trifluoromethyl)-3,4,10,10a,11,12,12a,13-octahydro-5,9-(azeno)cyclobuta[k]pyrazolo[4,3-b][1]oxa[4,6,10]triazacyclotridecine]
LRRK2 pIC50: 8.24

Cc1nn(C(C)C)c2c1OCCC(C)Nc1nc(ncc1C(F)(F)F)N2 (single isomer, unassigned) [Ex-2.9, (R)- or (S)-1-isopropyl-3,7-dimethyl-10-(trifluoromethyl)-1,5,6,7,8,14-hexahydro-9,13-(azeno)pyrazolo[4,3-b][1]oxa[4,6,10]triazacyclotridecine]
LRRK2 pIC50: 6.31

Cc1nn(C(C)(C)CO)c2c1Nc1ncc(C(F)(F)F)c(n1)N[C@H](C)CCO2 [Ex-7.3, (R)-2-(3,11-dimethyl-8-(trifluoromethyl)-10,11,12,13-tetrahydro-5,9-(azeno)pyrazolo[3,4-b][1]oxa[4,6,10]triazacyclotridecin-1(4H)-yl)-2-methylpropan-1-ol]
LRRK2 pIC50: >10.09

CC(C)c1nn(C(C)(C)C#N)c2c1Nc1ncc(Cl)c(n1)N[C@@H]1COC[C@H]1CO2 [Ex-1.16, 2-((10aS,13aS)-8-chloro-3-isopropyl-10a,11,13a,14-tetrahydro-10H,13H-5,9-(azeno)furo[3,4-k]pyrazolo[3,4-b][1]oxa[4,6,10]triazacyclotridecin-1(4H)-yl)-2-methylpropanenitrile]
LRRK2 pIC50: 9.76

Cc1nn(C2CCC2)c2c1OCC1COCCC1Nc1nc(ncc1C(F)(F)F)N2 [Ex-2.35, (4aR,16aR)- and (4aS,16aS)-12-cyclobutyl-14-methyl-7-(trifluoromethyl)-3,4,4a,5,11,12,16,16a-octahydro-1H-6,10-(azeno)pyrano[4,3-k]pyrazolo[4,3-b][1]oxa[4,6,10]triazacyclotridecine]
LRRK2 pIC50: 8.56

Cc1nn(C)c2c1OCC[C@@H](C)Nc1nc(ncc1C(F)(F)F)N2 (mixture of isomers) [Ex-2.2, (R)- and (S)-1,3,7-trimethyl-10-(trifluoromethyl)-1,5,6,7,8,14-hexahydro-9,13-(azeno)pyrazolo[4,3-b][1]oxa[4,6,10]triazacyclotridecine]
LRRK2 pIC50: 5.45

Cc1nn(C2CCC2)c2c1OC1COC[C@@H]1CNc1nc(ncc1Cl)N2 (stereo partly drawn) [Ex-2.83, (11aR,14aR)- or (11aS,14aS) 8-chloro-3-cyclobutyl-1-methyl-3,4,10,11,11a,12,14,14a-octahydro-5,9-(azeno)furo[3,4-1]pyrazolo[4,3-b][1]oxa[4,6,10]triazacyclotridecine]
LRRK2 pIC50: 5.76

Cc1nn(C2CCC2)c2c1OC[C@@H]1CC[C@H]1Nc1cc(ncc1F)N2 [Ex-13.7, (10aR,12aR)-3-cyclobutyl-8-fluoro-1-methyl-3,4,10,10a,11,12,12a,13-octahydro-5,9-(metheno)cyclobuta[k]pyrazolo[4,3-b][1]oxa[4,6,10]triazacyclotridecine]
LRRK2 pIC50: 5.02

Cc1nn(C2CC2)c2c1O[C@@H]1CC[C@@H]1CNc1nc(ncc1C(F)(F)F)N2 [Ex-2.85, (11aR,13aR)- or (11aS,13aS)-3-cyclopropyl-1-methyl-8-(trifluoromethyl)-3,4,10,11,11a,12,13,13a-octahydro-5,9-(azeno)cyclobuta[I]pyrazolo[4,3-b][1]oxa[4,6,10]triazacyclotridecine]
LRRK2 pIC50: 8.74

CCOC(=O)Cc1nn(C2CC2)c2c1OC[C@@H]1COC[C@H]1Nc1nc(ncc1C(F)(F)F)N2 [Ex-2.67, ethyl 2-((10aS,13aS)-3-cyclopropyl-8-(trifluoromethyl)-3,4,10a,11,13a,14-hexahydro-10H,13H-5,9-(azeno)furo[3,4-k]pyrazolo[4,3-b][1]oxa[4,6,10]triazacyclotridecin-1-yl)acetate]
LRRK2 pIC50: 9.45

Cn1nc(C2CC2)c2c1OCC1CCC1Nc1nc(ncc1C(F)(F)F)N2 [Ex-1.11, (10aR,12aR)- or (10aS,12aS)-3-cyclopropyl-1-methyl-8-(trifluoromethyl)-1,4,10,10a,11,12,- 12a,13-octahydro-5,9-(azeno)cyclobuta[k]pyrazolo[3,4-b][1]oxa[4,6,10]triazacyclotridecine]
LRRK2 pIC50: >10.09

COC(=O)c1nn(C2CCC2)c2c1OC[C@@H]1COC[C@H]1Nc1nc(ncc1C(F)(F)F)N2 [Ex-5.6, methyl (10aS,13aS)-3-cyclobutyl-8-(trifluoromethyl)-3,4,10a,11,13a,14-hexahydro-10H,13H-5,9-(azeno)furo[3,4-k]pyrazolo[4,3-b][1]oxa[4,6,10]triazacyclotridecine-1-carboxylate]
LRRK2 pIC50: 9.80

Cc1cnc2nc1N[C@H](C)CCOc1c(c(C)nn1C(C)(C)CO)N2 [Ex-8.1, (R)-2-methyl-2-(3,8,11-trimethyl-10,11,12,13-tetrahydro-5,9-(azeno)pyrazolo[3,4-b][1]oxa[4,6,10]triazacyclotridecin-1 (4H)-yl)propan-1-ol]
LRRK2 pIC50: >10.09

COc1cccc2c1Nc1ncc(C(F)(F)F)c(n1)N[C@H]1COC[C@@H]1CO2 [Ex-15.1]
LRRK2 pIC50: >10.09

Cn1nc(C(F)(F)F)c2c1OC[C@@H]1CC[C@H]1Nc1nc(ncc1Cl)N2 [Ex-1.19, (10aR,12aR)-8-chloro-1-methyl-3-(trifluoromethyl)-1,4,10,10a,11,12,12a,13-octahydro-5,9-(azeno)cyclobuta[k]pyrazolo[3,4-b][1]oxa[4,6,10]triazacyclotridecine]
LRRK2 pIC50: 9.87

CCOC(=O)[C@@H]1C[C@@H]1c1nn(C(C)C)c2c1OC[C@@H]1COC[C@H]1Nc1nc(ncc1C(F)(F)F)N2 [Ex-2.46, ethyl (1R,2S)- or ethyl (1S,2R)-2-((10aS,13aS)-3-isopropyl-8-(trifluoromethyl)-3,4,10a,11,13a,14-hexahydro-10H,13H-5,9-(azeno)furo[3,4-k]pyrazolo[4,3-b][1]oxa[4,6,10]triazacyclotridecin-1-yl)cyclopropane-1-carboxylate]
LRRK2 pIC50: 6.66

Cc1nn(C2CC2(F)F)c2c1OCC1COCC1Nc1nc(ncc1C(F)(F)F)N2 [Ex-2.59, (10aS,13aS)-3-((R)-2,2-difluorocyclopropyl)-1-methyl-8-(trifluoromethyl)-3,4,10a,11,13a,14-hexahydro-10H,13H-5,9-(azeno)furo[3,4-k]pyrazolo[4,3-b][1]oxa[4,6,10]triazacyclotridecine (10aS,13aS)-3-((S)-2,2-difluorocyclopropyl)-1-methyl-8-(trifluoromethyl)-3,4,10a,11,13a, 14-hexahydro-10H,13H-5,9-(azeno)furo[3,4-k]pyrazolo[4,3-b|[1]oxa|4,6,10]triazacyclotridecine]
LRRK2 pIC50: 9.71

CC(C)c1nn(C(C)(C)C#N)c2c1Nc1ncc(C(F)(F)F)c(n1)N[C@@H]1COC[C@H]1CO2 [Ex-1.14, 2-((10aS,13aS)-3-isopropyl-8-(trifluoromethyl)-10a,11,13a,14-tetrahydro-10H,13H-5,9-(azeno)furo[3,4-k]pyrazolo[3,4-b][1]oxa[4,6,10]triazacyclotridecin-1(4H)-yl)-2-methylpropanenitrile]
LRRK2 pIC50: 8.66
